Results on 5 compounds are retold here after patent US10017527B2, “KLK4 inhibitors” (Universiteit Antwerpen, priority 2014, dated 2018).

Structures are written as SMILES.

Common to all, as to type: biochemical
One experiment addresses T1, Thrombine (human plasma) (Homo sapiens, UniProt P00734).
T1 construct: purchased Sigma-Aldrich; host or cells: human plasma
Put plainly: Thrombin inhibition, chromogenic substrate Biophen CS-21(66).

In experiment [1] the target is T2, KLK4 (Homo sapiens, UniProt Q9Y5K2).
T2 construct: purchased Viktor Magdolen (TUM), supplied by an academic laboratory
T2 sequence (Q9Y5K2 31-254): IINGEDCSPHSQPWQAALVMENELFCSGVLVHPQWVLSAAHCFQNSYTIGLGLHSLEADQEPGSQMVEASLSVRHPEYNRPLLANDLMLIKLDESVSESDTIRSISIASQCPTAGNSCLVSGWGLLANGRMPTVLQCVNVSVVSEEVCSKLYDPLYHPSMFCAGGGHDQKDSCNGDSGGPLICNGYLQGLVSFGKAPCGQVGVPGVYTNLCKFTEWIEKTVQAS
The experiment can be described thus: KLK4 enzymatic inhibition, fluorogenic substrate Boc-Val-Pro-Arg-AMC. As to the method: The substrate was obtained form Bachem and the enzyme was provided by Viktor Magdolen (TUM). The reaction was monitored with an excitation wavelength of 355 nm and emission wavelength of 460 nm. The initial rate was determined between 2500000 and 4500000 mRFU/min. The reaction mixture contained 25 μM substrate and approximately 1 mU of enzyme in 145 μL of buffer in a final volume of […]. A 50 mM Tris buffer, pH 8.3, was used. From each inhibitor concentration, 5 μL was added, obtaining a final concentration from 0 to 250 μM in a total volume of 0.2 mL. Activity measurements were routinely performed in duplicate. […] IC50 values were obtained by fitting the data with the four-parameter logistics equation using Grafit 7.
[formula] where s=slope factor, v=rate, I0=inhibitor concentration, and range=the fitted uninhibited value minus the background. The equation assumes they falls with increasing x.
(§1) Inhibitor stock solutions were prepared in DMSO and stored at −20° C. Because the compounds described in this paper completely inactivate KLK4 following pseudo first-order kinetics, the IC50 value is inversely correlated with the second-order rate constant of inactivation. For a simple pseudo first-order inactivation process, the activity after incubation with inhibitor (vi) varies with the inhibitor concentration (i), as described in the following equation: vi=v0×e^−k t, where vo is the activity in absence of inhibitor, k is the second-order rate constant of inactivation, and t is the time. The inactivation rate constant was determined from the time course of inhibition.

The next experiment addresses T3, Matriptase (Homo sapiens, UniProt Q9Y5Y6).
T3 sequence (Q9Y5Y6 1-855): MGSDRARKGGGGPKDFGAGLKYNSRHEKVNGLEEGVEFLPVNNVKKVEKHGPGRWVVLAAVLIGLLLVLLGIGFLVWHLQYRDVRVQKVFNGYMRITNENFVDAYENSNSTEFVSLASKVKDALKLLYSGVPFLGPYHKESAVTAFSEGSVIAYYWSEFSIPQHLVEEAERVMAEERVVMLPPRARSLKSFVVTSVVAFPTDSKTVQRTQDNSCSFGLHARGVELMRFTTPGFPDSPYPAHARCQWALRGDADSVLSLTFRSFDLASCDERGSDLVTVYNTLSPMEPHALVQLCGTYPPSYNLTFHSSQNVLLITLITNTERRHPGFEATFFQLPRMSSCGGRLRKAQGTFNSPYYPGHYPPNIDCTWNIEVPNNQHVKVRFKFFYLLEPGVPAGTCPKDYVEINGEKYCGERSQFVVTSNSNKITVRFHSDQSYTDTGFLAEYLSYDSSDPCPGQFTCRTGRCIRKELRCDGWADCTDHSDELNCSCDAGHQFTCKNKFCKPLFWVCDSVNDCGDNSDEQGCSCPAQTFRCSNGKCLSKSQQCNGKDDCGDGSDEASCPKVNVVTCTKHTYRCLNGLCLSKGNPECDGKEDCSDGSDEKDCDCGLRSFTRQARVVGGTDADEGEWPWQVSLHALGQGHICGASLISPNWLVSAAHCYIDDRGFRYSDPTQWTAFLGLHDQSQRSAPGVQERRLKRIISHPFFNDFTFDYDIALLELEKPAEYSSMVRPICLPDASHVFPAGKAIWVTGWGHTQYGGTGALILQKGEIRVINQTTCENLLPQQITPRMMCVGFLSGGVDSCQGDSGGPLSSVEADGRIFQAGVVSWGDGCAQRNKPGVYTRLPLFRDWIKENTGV
Put plainly: Matriptase inhibition.

In another experiment the target is T4, FXa (Homo sapiens, UniProt P00742).
T4 construct: purchased Nodia
T4 sequence (P00742 235-488 limits assumed): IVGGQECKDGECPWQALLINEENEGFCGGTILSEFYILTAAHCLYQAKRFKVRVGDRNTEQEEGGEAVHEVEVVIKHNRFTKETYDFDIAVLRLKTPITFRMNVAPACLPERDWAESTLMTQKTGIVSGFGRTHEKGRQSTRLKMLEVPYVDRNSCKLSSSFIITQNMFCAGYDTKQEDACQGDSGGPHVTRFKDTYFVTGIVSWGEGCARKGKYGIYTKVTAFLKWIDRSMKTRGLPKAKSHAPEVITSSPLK
T4 sequence (P00742 41-179 partner limits assumed): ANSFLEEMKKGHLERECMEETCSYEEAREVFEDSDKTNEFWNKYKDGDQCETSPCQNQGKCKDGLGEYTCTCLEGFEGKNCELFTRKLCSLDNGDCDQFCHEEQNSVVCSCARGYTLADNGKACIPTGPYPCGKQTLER
Put plainly: FXa inhibition, chromogenic substrate Biophen CS-11(32). The text has this: (§2) The IC50 values For KLK1, KLK2 and KLK8 were obtained in a similar way. For plasmin, tPA, thrombin, Fxa, HNE, Plasma kallikrein Chromogenic substrates were used (absorption: 405 nm). (KLK2, KLK4, KLK8 were supplied by Viktor Magdolen TUMunich (TUM)).

Experiment [2] addresses T2, KLK4. Put plainly: KLK4 inactivation kinetics from progress curves (kobs vs inhibitor concentration). The conditions noted are these: for Irreversible (KLK4): irreversible binding to KLK4, Yes/No. How it is done: as §1
The inhibitor was mixed with the substrate (250 μM final concentration), and the buffer solution with the enzyme was added at the time zero. […] The progress curves show the absorbance of aminomethylcoumarine produced as a function of time. Initially, no inhibitor is bound to the enzyme, and the tangent to the progress curve (dA/dt) is proportional to the concentration of the free enzyme. The concentration of free enzyme decreases over time due to the kinetics of inhibitor binding, as described above. Progress curves were recorded in pseudo first-order conditions ([I]0>>[E]0) and with less than 10% conversion of the substrate during the entire time course. In these conditions, dA/dt decreases exponentially with time. The progress curves were fitted with the integrated rate equation to yield a value for kobs, a pseudofirst-order rate constant At=v0[1−e^−k^obs^t]/kobs+A0 where At=absorbance at time t, A0=absorbance at time zero, and v0=uninhibited initial rate.
The apparent second-order rate constant (kapp) was calculated from the slope of the linear part of the plot of kobs versus the inhibitor concentration ([I]0). In case of competition between the inhibitor and the substrate, kapp is smaller than the “real” second order rate constant k discussed above because a certain fraction of the enzyme is present as an enzyme-substrate complex. kapp depends on the substrate concentration used in the experiment, as described by Lambeir et al. (Lambeir, Borloo et al. 1996).

Experiment [3] concerns the target T5, Neurtophil Elastase(human) (Homo sapiens, UniProt P08246).
T5 construct: purchased Enzo-life sciences
T5 sequence (P08246 30-267): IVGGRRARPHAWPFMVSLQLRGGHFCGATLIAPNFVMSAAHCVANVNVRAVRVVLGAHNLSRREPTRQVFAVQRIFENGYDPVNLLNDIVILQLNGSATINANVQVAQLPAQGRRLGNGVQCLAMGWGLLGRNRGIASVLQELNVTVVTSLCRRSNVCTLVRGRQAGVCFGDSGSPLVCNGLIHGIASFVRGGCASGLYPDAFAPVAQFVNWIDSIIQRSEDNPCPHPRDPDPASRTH
The experiment can be described thus: Neutrophil elastase inhibition, chromogenic substrate MeOSuc-Ala-Ala-Pro-Val-pNA.
Description: as §2

A further experiment deals with T6, KLK2 (human) (Homo sapiens, UniProt P20151).
T6 construct: purchased Viktor Magdolen, TUMunich (TUM), supplied by an academic laboratory
T6 sequence (P20151 25-261): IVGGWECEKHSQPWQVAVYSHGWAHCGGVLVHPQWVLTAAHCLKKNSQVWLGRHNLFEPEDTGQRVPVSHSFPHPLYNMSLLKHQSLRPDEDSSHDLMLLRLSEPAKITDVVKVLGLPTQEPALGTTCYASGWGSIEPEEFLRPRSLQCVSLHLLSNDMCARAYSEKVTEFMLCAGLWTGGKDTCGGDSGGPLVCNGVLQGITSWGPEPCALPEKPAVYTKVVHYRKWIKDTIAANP
The experiment can be described thus: KLK2 inhibition, fluorogenic substrate H-Pro-Phe-Arg-AMC.
Description: as §2

In the next experiment the target is T7, tPA (recombinant) (Homo sapiens, UniProt P00750).
T7 construct: purchased Nodia
T7 sequence (P00750 36-562, species assumed): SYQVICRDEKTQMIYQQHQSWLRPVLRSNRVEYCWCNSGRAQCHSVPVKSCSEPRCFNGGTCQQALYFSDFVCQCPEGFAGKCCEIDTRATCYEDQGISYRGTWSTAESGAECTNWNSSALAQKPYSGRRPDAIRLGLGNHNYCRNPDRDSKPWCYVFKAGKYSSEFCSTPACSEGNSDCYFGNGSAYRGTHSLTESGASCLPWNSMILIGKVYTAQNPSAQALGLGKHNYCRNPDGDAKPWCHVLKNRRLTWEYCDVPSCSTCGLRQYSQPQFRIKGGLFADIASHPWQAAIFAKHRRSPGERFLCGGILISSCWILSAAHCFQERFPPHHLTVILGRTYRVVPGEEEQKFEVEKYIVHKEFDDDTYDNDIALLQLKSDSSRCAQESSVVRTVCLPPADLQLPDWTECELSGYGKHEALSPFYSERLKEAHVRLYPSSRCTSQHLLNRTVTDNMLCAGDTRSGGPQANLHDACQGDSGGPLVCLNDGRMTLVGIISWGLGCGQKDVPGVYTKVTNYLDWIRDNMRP
The experiment can be described thus: tPA inhibition, chromogenic substrate Biophen CS-05(88).
Description: as §2

In a further experiment the target is T8, PlasmaKLK (human plasma) (Homo sapiens, UniProt P03952).
T8 construct: purchased Sigma-Aldrich; host or cells: human plasma
T8 sequence (P03952 391-638 limits assumed): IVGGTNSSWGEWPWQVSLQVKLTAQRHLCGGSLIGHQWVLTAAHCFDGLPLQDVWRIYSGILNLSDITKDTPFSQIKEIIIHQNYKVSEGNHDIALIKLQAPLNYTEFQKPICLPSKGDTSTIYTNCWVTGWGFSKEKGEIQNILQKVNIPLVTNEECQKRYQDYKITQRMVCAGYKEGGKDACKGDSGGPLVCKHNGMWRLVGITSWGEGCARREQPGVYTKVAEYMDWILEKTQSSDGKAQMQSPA
T8 sequence (P03952 20-390 partner limits assumed): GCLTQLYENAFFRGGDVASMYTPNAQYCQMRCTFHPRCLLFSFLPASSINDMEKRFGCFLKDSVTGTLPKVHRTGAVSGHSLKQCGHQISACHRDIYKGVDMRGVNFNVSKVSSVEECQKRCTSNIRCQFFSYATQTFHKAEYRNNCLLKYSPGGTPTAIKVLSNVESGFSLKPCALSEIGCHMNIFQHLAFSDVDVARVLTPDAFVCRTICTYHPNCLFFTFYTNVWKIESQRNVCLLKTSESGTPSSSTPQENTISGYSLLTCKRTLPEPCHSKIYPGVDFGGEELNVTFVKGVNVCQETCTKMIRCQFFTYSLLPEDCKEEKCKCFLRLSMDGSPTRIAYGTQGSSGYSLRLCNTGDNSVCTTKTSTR
Put plainly: Plasma kallikrein inhibition, chromogenic substrate Biophen CS-31(02).
Description: as §2

In the next experiment the target is T9, KLK1 (human) (Homo sapiens, UniProt P06870).
T9 construct: purchased Prospec
T9 sequence (P06870 25-262): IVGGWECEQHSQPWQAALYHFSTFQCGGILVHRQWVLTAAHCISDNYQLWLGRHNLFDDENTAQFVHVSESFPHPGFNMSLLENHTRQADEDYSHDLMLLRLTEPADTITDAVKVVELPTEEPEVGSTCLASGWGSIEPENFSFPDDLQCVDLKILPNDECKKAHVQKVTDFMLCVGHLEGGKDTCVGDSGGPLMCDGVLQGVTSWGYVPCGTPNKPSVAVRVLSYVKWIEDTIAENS
Put plainly: KLK1 inhibition, fluorogenic substrate H-Pro-Phe-Arg-AMC.
Description: as §2

Another experiment deals with AcHE (Homo sapiens, UniProt P22303). The experiment can be described thus: AcHE inhibition.
AcHE, sequence (P22303 32-614): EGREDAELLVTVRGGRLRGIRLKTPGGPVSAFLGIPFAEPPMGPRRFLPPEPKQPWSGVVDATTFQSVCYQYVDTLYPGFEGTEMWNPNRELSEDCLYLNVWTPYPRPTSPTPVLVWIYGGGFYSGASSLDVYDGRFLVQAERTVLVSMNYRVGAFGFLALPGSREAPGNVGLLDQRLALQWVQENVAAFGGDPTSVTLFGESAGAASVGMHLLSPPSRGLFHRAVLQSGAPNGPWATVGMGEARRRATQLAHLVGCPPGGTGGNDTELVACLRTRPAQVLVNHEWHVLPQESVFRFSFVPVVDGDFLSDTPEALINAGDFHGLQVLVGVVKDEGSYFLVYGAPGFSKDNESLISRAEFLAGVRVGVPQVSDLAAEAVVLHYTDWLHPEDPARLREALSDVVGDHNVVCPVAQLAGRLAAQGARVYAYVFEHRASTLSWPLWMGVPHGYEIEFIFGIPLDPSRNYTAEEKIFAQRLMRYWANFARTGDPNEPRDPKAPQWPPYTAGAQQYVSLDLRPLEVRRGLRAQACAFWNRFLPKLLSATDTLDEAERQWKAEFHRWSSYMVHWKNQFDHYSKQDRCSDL
The next experiment concerns the target T10, uPA (recombinant) (Homo sapiens, UniProt P00749).
T10 construct: purchased Nodia
Put plainly: uPA inhibition, chromogenic substrate Biophen CS-61(44).

The next experiment has as its target T11, KLK8 (human) (Homo sapiens, UniProt O60259).
T11 construct: purchased Viktor Magdolen, TUMunich (TUM), supplied by an academic laboratory
T11 sequence (O60259 33-260): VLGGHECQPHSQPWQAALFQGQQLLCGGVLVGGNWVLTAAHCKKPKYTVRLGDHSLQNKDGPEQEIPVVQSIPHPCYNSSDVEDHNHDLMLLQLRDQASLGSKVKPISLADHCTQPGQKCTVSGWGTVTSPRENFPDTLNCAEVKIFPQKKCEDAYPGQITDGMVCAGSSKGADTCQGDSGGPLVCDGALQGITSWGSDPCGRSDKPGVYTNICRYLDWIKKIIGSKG
Put plainly: KLK8 inhibition, fluorogenic substrate Boc-Val-Pro-Arg-AMC.
Description: as §2

A further experiment addresses T12, Plasmine (human plasma) (Homo sapiens, UniProt P00747).
T12 construct: purchased Sigma-Aldrich; host or cells: human plasma
Put plainly: Plasmin inhibition, chromogenic substrate Biophen CS-21(66).
Description: as §2

T12 sequence (P00747 581-810 limits assumed): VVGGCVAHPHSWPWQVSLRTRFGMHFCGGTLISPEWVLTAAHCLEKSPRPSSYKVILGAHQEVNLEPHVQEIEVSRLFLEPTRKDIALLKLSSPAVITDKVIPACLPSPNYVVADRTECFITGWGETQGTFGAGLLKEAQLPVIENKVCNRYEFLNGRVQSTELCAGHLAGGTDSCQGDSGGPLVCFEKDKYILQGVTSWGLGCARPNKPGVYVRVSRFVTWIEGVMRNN
T12 sequence (P00747 98-580 partner limits assumed): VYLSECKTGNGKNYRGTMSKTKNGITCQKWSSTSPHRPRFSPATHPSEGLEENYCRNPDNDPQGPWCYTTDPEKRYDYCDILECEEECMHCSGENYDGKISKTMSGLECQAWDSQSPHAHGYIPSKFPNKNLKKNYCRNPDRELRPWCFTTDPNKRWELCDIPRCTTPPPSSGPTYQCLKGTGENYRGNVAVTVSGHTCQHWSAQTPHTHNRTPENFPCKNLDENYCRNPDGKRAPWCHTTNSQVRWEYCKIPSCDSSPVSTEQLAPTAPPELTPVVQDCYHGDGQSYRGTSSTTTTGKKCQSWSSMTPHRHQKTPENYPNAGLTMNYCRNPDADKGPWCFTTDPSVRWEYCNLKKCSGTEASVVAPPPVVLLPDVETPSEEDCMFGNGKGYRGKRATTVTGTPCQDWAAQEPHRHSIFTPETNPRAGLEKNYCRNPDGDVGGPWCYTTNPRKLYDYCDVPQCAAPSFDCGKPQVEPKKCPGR

For `C#CCOCCOCCOC(=O)NC(c1ccc(NC(=N)N)cc1)P(=O)(Oc1ccccc1)Oc1ccccc1.O=C(O)C(F)(F)F` (stereo not drawn) [Compound 27, 2-(2-(prop-2-yn-1-yloxy)ethoxy)ethyl ((diphenoxyphosphoryl)(4-guanidinophenyl)methyl)carbamate 2,2,2-trifluoroacetate], the IC50 on Thrombine (human plasma) was greater than 250 µM; against KLK4 [1], less than 0.1 µM; on Matriptase it was 2.5 to 10 µM; on FXa, 10 to 250 µM; in experiment [3], 2.5 to 10 µM; against KLK2 (human), 1 to 2.5 µM. For the same compound, the half-maximal inhibitory concentration (IC50) at tPA (recombinant) is greater than 250 µM; at PlasmaKLK (human plasma) it was 10 to 250 µM; on KLK1 (human), 2.5 to 10 µM; against AcHE, 10 to 250 µM; at uPA (recombinant) it was 2.5 to 10 µM; at KLK8 (human) it was 10 to 250 µM. Also, at KLK4 [2] (apparent second-order rate constant, substrate 250 μM), the “kapp KLK4” value was 16000 M⁻¹ s⁻¹. On KLK4 [2], the “Irreversible (KLK4)” value is on record as “Yes/”.
`N=C(N)Nc1ccc(C(NC(=O)OCc2ccccc2)P(=O)(Oc2ccccc2)Oc2ccccc2)cc1` (stereo not drawn) [Compound 5a, benzyl (diphenoxyphosphoryl)(4-guanidinophenyl)methylcarbamate 2,2,2-trifluoroacetate, reference compound]: the half-inhibitory concentration (IC50) on Thrombine (human plasma) was greater than 250 µM; on KLK4 [1], less than 0.1 µM; at Matriptase, 2.5 to 10 µM; at FXa, 2.5 to 10 µM; on Plasmine (human plasma), 2.5 to 10 µM; in experiment [3] it was 10 to 250 µM. In addition, the IC50 against KLK2 (human) was less than 0.1 µM; at tPA (recombinant), greater than 250 µM; against PlasmaKLK (human plasma) it was 2.5 to 10 µM; on KLK1 (human), 0.1 to 1 µM; at AcHE it was 10 to 250 µM; on uPA (recombinant), 2.5 to 10 µM. Moreover, at KLK8 (human), the half-maximal inhibitory concentration (IC50) was 1 to 2.5 µM. Besides, on KLK4 [2], the “binding mechanism against KLK4” value is “reversible”.
With `COCCOC(=O)NC(c1ccc(NC(=N)N)cc1)P(=O)(Oc1ccccc1)Oc1ccccc1` (stereo not drawn) [Compound 29, 2-methoxyethyl ((diphenoxyphosphoryl)(4-guanidinophenyl)methyl)carbamate 2,2,2-trifluoroacetate], the 50% inhibitory concentration (IC50) against Thrombine (human plasma) is greater than 250 µM; against KLK4 [1] it was 0.1 to 1 µM; at Matriptase it was 2.5 to 10 µM; against FXa it was greater than 250 µM; on Plasmine (human plasma) it was 10 to 250 µM; in [3], 2.5 to 10 µM. Further, the IC50 on KLK2 (human) was 0.1 to 1 µM; at tPA (recombinant), greater than 250 µM; against PlasmaKLK (human plasma), greater than 250 µM; at KLK1 (human), 10 to 250 µM; against AcHE, 10 to 250 µM; at uPA (recombinant), 10 to 250 µM. The IC50 at KLK8 (human) is 10 to 250 µM.
Regarding `CCCCCCOC(=O)NC(c1ccc(NC(=N)N)cc1)P(=O)(Oc1ccccc1)Oc1ccccc1` (stereo not drawn) [Compound 92, Hexyl ((diphenoxyphosphoryl)(4-guanidinophenyl)methyl)carbamate], the IC50 against KLK4 [1] is less than 0.1 µM; on FXa it was 2.5 to 10 µM; against Plasmine (human plasma), 2.5 to 10 µM; in experiment [3], 2.5 to 10 µM; at KLK2 (human) it was 0.1 to 1 µM; at tPA (recombinant), 2.5 to 10 µM. The IC50 against PlasmaKLK (human plasma) lay in the range of 2.5 to 10 µM; at KLK1 (human) it was 1 to 2.5 µM; on AcHE it was 10 to 250 µM; on uPA (recombinant) it was 2.5 to 10 µM; at KLK8 (human) it was 2.5 to 10 µM.
`N=C(N)Nc1ccc(CC(NC(=O)OCc2ccccc2)P(=O)(Oc2ccccc2)Oc2ccccc2)cc1` (stereo not drawn) [UPA1, reference compound]: the IC50 against Thrombine (human plasma) was 1 to 2.5 µM; against KLK4 [1], less than 0.1 µM; at Matriptase, 0.1 to 1 µM; on FXa, 10 to 250 µM; at Plasmine (human plasma), 2.5 to 10 µM; in [3] it was 10 to 250 µM. Moreover, the IC50 against KLK2 (human) is less than 0.1 µM; at tPA (recombinant) it was 10 to 250 µM; against PlasmaKLK (human plasma), 2.5 to 10 µM; at KLK1 (human), 2.5 to 10 µM; against AcHE it was 10 to 250 µM; at KLK8 (human) it was less than 0.1 µM. Moreover, the “binding mechanism against KLK4” value at KLK4 [2] is on record as “reversible”. Besides, the “Irreversible (KLK4)” value at KLK4 [2] was “No”.
